Patent US7109206B2

Legend:
[1] = tested on: patients with severe coronary artery disease; test: Angina symptoms and clinical outcome of treated patients (case reports); type: in vivo, human; details: for time to clearing of congestive heart failure: furosemide 40 mg twice a day, digoxin 0.25 mg, warfarin 5 mg once a day; for angina frequency: buspirone 20 mg t.i.d.
From the text: The patient population in this study consisted of 11 individuals with severe coronary artery disease who were refractory to CABG or PCTA or who declined recommended CABG or PCTA, and one individual with severe carotid artery stenosis. The study group consisted of 10 men and 2 women, with a median age at entry into the program of 65 years (mean, 65.8 years), and a mean time in program of 4.1 years (range, 9 months to 12 years).
In this study, ten patients experienced angina at the time of presentation. The median time to remission of anginal symptoms was calculated on the basis of the nine patients who presented with angina and for whom records of anginal frequency were accessible.

[2] = Serum lipids and laboratory values of treated patients (case reports)
[3] = tested on: patients with severe coronary artery disease; test: Tolerability / adverse effects in treated patients

Compound: C[C@H]1O[C@@H](O[C@H]2[C@@H](O)C[C@H](O[C@H]3[C@@H](O)C[C@H](O[C@H]4CC[C@@]5(C)[C@H](CC[C@@H]6[C@@H]5C[C@@H](O)[C@]5(C)[C@@H](C7=CC(=O)OC7)CC[C@]65O)C4)O[C@@H]3C)O[C@@H]2C)C[C@H](O)[C@@H]1O [digoxin]
- time to clearing of congestive heart failure ([1]; Patient three, given together): 24 h

Compound: O=C1CC2(CCCC2)CC(=O)N1CCCCN1CCN(c2ncccn2)CC1 [buspirone]
- angina ([1]; Patient five, buspirone 15 mg t.i.d. added, induction phase): their angina remitted
- angina frequency ([1]; Patient five, no use of nitroglycerin): one episode of mild angina in two weeks
- angina frequency ([1]; Patient five, through June of the next year): no episodes of angina
- angina symptoms ([1]; Patient five, buspirone increased to 20 mg t.i.d., isosorbide dinitrate discontinued): Marked palliation of the symptoms
- chest tightness with anxiety or distress ([1]; Patient one, buspirone 10 mg b.i.d. added to medications): no further episodes of chest tightness were reported
- frequency of angina symptoms ([1]; Patient, buspirone 30 mg per day, after one month 15 mg t.i.d.): remained approximately constant
- severity of angina symptoms ([1]; Patient, buspirone 30 mg per day, after one month 15 mg t.i.d., added to medications): declined markedly, from pain to mild tightness
- anginal symptoms ([1]; Patient, buspirone, six months after initiation of therapy): resolved completely
- relief from refractory unstable angina ([1]; summary of results): effective in providing relief from refractory unstable angina

Compound: CCC(C)(C)C(=O)O[C@H]1C[C@@H](C)C=C2C=C[C@H](C)[C@H](CC[C@@H]3C[C@@H](O)CC(=O)O3)[C@H]21 [simvastatin]
- serum total cholesterol, mean of five determinations ([2]; Patient four, simvastatin 40 mg per day substituted for pravastatin in the regimen, range 81-146): 118 mg/dL
- HDL cholesterol, mean of five determinations ([2]; Patient four, simvastatin 40 mg per day, range 37-71): 55 mg/dL
- HDL ([2]; Patient four, year of 1995): 82 mg/dL
- LDL ([2]; Patient four, year of 1995): 53 mg/dL
- total cholesterol ([2]; Patient four, year of 1995): 121 mg/dL
- triglycerides ([2]; Patient four, year of 1995): 44 mg/dL

Compound: O=C(O)c1cccnc1 [niacin]
- adverse effect ([3]; Patient three, niacin 3.0 g/day, weeks 5-7, dose decreased to 1.5 g/day): itching and flushing
- tolerability ([3]; Patient two, niacin 3 g per day, dose decreased to 1 g per day): intolerance appeared

Compound: COc1ccc([C@@H]2Sc3ccccc3N(CCN(C)C)C(=O)[C@@H]2OC(C)=O)cc1 [diltiazem]
- angina ([1]; Patient three, diltiazem restarted after one month of lisinopril): prompt remission of angina

Compound: CC[C@H](C)C(=O)O[C@H]1C[C@@H](C)C=C2C=C[C@H](C)[C@H](CC[C@@H]3C[C@@H](O)CC(=O)O3)[C@H]21 [lovastatin]
- total cholesterol ([2]; Patient two, fifth year, lovastatin discontinued, range 155 to 194): 176 mg/dL
- adverse event ([3]; Patient four, on lovastatin 30 mg per day regimen, pravastatin substituted): mild conjunctivitis of unknown etiology

Compound: CC(=O)CC(c1ccccc1)c1c(O)c2ccccc2oc1=O (centres unmarked) [warfarin]
- time to clearing of congestive heart failure ([1]; Patient three, given together): 24 h

Compound: NCCCC[C@H](N[C@@H](CCc1ccccc1)C(=O)O)C(=O)N1CCC[C@H]1C(=O)O [lisinopril]
- angina ([1]; Patient three, lisinopril 5 mg/day substituted for diltiazem 60 mg four times a day): Angina recurred with mild to moderate exercise

Compound: colestipol
- serum total cholesterol, mean of three determinations ([2]; Patient five, colestipol 12 g per day, declined from 241): 217 mg/dL
- angina ([1]; Patient five, colestipol 12 g per day): severity of their angina declined

Compound: O=c1n(CCCN2CCN(c3cccc(Cl)c3)CC2)nc2ccccn12 [trazodone]
- relief of fatigue and difficulty sleeping ([1]; Patient three, trazodone 50 mg and imipramine 25 mg at bedtime, given together): fair to moderate relief

Compound: O=[N+]([O-])OCC(CO[N+](=O)[O-])O[N+](=O)[O-] [nitroglycerin]
- angina after discontinuation ([1]; Patient five, discontinuation of the nitroglycerin): five episodes of angina
- nonexertional angina ([1]; Patient five, transdermal nitroglycerin): refractory
- left neck pain ([1]; Patient two, 15 months after induction of therapy): relieved
